Source: patent US6686350B1, “Cell adhesion inhibitors” (Biogen, Inc., priority 1996, dated 2004)

The molecules below were run against T1, VLA-4 (Homo sapiens, UniProt P05556+P13612) (assay: VLA-4 direct binding assay (VCAM-IgG alkaline phosphatase conjugate binding to Jurkat cells)). Settings: Table 1, Structure-Activity; assay and unit inferred; read-out: Act.
T1 construct: endogenous in cells; host or cells: Jurkat cells
Text: A direct binding assay may also be employed to quantitate the inhibitory activity of the compounds of this invention. (“DBA”) In direct binding assays, for example, a VCAM-IgG fusion protein containing the first two immunoglobulin domains of VCAM (D1D2) attached above the hinge region of an IgG1 molecule (“VCAM 2D-IgG”), is conjugated to a marker enzyme, such as alkaline phosphatase (“AP”). The synthesis of this VCAM-IgG fusion is described in PCT publication WO 90/13300, the disclosure of which is herein incorporated by reference. The conjugation of that fusion to a marker enzyme can be achieved by cross-linking methods well-known in the art.
The VCAM-IgG enzyme conjugate is then placed in the wells of a multi-well filtration plate, such as that contained in the Millipore Multiscreen Assay System (Millipore Corp., Bedford, Mass.). Varying concentrations of the test inhibitory compound are then added to the wells followed by addition of VLA-4-expressing cells. The cells, compound and VCAM-IgG enzyme conjugate are mixed together and allowed to incubate at room temperature.
Following incubation, the wells are vacuum drained, leaving behind the cells and any bound VCAM. Quantitation of bound VCAM is determined by adding an appropriate calorimetric substrate for the enzyme conjugated to VCAM-IgG and determining the amount of reaction product. Decreased reaction product indicates increased binding inhibitory activity. The protocol is described more specifically below:
1. Block a 96 well Millipore Multiscreen Assay System filtration plate^1 with 200:l/well of blocking buffer (1×Phosphate Buffered Saline, 0.1%Tween 20, 1%BSA) for at least 1 hour at room temperature.
2. Drain the plate with the vacuum manifold, and wash with 200 μl/well of assay buffer (Tris Buffered Saline, 0.1% BSA, 2 mM glucose, 10 mM HEPES, pH 7.5) draining the plate in between. Repeat twice. Then blot the plate bottom on paper to remove excess buffer.
3. Prepare a 4 μg/ml VCAMIg-AP solution (Alkaline phosphatase coupled to VCAMIg) in assay buffer and filter with a 0.2:low protein binding syringe filter (Gelman Sciences #4454). From this stock, prepare a 0.4 μg/ml working solution of VCAMIg-AP in assay buffer. Add 25:l of 0.4 μg/ml VCAMIg-AP to every well.
5. Prepare dilutions of compounds to be tested in assay buffer. Concentrations should be 4× the desired final concentration and run in triplicate. Add 25 μl of the compound dilutions to designated wells.
7. Jurkat cells are centrifuged to remove cell culture media and washed once in assay buffer. Resuspend the washed Jurkat cells to a concentration of 8×10^6/ml in assay buffer containing 2 mM MnCl2. Pipeting the mixture up and down to ensure a uniform cell suspension. Add 50:l of cell suspension to each well except the NSB wells.
8. Gently tap the sides of the plate to mix well contents. Incubate the plate for 60 minutes at room temperature (RT).
9. Place the plate on the vacuum manifold to drain the well contents. Wash twice with 100 μl/well of wash buffer (assay buffer containing 1 mM MnCl2). Drain the plate and blot on paper towels.
10. Add 10 mg/ml of 4-Nitro phenyl phosphate to Substrate buffer (0.1M glycine, 1 mM ZnCl2, 1 mM MgCl2, pH 10.5). Add 100 μl/well and incubate for exactly 30 minutes at RT.
11. To stop the reaction, add 100 μl/well of 3N NaOH.
12. Read the 96-well plate in a Molecular Devices ELISA platereader at 405 nm. Analyze data with SoftMax software.

T1 sequence (P13612 34-1032): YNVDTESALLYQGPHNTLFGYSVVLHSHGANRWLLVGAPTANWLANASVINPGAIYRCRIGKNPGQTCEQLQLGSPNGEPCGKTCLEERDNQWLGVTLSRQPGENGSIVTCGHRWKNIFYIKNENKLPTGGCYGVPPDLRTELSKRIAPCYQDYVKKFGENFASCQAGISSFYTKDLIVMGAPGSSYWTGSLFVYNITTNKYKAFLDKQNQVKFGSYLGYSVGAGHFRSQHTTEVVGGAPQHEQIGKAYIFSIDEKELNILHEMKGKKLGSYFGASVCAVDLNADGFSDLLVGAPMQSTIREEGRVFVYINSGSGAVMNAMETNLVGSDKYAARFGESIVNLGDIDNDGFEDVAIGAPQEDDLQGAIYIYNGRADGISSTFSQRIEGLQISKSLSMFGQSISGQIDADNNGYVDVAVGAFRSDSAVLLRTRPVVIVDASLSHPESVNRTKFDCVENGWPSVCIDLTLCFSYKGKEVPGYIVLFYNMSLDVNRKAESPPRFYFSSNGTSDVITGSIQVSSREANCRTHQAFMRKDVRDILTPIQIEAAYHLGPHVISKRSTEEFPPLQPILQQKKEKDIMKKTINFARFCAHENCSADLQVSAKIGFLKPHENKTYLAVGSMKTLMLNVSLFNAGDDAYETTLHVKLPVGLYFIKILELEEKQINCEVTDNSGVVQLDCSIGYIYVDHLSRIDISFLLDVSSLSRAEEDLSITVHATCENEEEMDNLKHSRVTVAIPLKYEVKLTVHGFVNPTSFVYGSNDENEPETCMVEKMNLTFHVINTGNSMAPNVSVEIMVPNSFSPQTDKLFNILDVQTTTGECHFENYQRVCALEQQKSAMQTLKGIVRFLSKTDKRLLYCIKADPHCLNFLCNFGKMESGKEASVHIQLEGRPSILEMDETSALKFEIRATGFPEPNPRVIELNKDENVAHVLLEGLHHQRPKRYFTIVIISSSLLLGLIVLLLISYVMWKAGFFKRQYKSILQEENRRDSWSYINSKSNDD
T1 sequence (P05556 21-798): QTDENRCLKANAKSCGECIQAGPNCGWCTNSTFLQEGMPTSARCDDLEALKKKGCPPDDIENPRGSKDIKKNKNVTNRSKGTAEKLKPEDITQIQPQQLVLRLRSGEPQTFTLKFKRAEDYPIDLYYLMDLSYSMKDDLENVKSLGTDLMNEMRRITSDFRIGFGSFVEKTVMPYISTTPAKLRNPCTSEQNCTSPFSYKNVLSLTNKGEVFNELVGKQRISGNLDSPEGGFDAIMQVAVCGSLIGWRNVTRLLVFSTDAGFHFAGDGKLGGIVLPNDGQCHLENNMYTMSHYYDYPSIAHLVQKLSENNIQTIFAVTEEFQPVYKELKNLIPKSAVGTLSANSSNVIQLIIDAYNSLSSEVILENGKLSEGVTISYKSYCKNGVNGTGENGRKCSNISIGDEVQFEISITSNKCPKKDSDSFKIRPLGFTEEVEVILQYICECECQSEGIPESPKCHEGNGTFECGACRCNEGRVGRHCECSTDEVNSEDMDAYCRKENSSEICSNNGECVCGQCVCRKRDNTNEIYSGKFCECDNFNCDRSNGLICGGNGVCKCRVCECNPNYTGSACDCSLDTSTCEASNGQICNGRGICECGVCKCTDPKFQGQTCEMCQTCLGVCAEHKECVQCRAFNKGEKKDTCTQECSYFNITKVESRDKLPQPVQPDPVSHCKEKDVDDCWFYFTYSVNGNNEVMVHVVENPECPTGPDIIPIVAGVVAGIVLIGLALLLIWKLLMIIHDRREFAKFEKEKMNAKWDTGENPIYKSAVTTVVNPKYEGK

Row | Compound | IC50 [nM]
1 | CCC(CC(=O)O)N1CC(=O)N(C)c2ccc(NC(=O)Cc3ccc(NC(=O)Nc4ccccc4C)cc3)cc2C1=O (stereo not drawn) [BX60] | 103
2 | COc1ccc(C(CC(=O)O)NC(=O)C(CC(=O)Nc2ccc(CCSc3ccccc3C)cc2)CC(C)C)cc1OC (stereo not drawn) [SX32] | 660
3 | COc1ccc([C@H](CC(=O)O)NC(=O)C(CC(=O)Nc2ccc(NC(=O)c3ccccc3)cc2)CC(C)C)cc1OC (stereo partly drawn) [SX3] | 165
4 | CCC(C)N1C(=O)CN(CCC(=O)O)C(=O)c2cc(NC(=O)Cc3ccc(NC(=O)Nc4ccccc4C)cc3)ccc21 (stereo not drawn) [BX49] | 163
5 | Cc1ccccc1NC(=O)Nc1ccc(CC(=O)Nc2ccc3c(c2)C(=O)N(C(CC(=O)O)C(=O)O)CC(=O)N3CCC(=O)O)cc1 (stereo not drawn) [BX62] | 95
6 | COc1cccc(C(=O)N(CCC(=O)O)CC(=O)N(CCC(C)C)CC(=O)Nc2ccc(C(=O)CC(=O)Nc3ccccc3Cl)cc2)c1 [AX23] | 580
7 | CN1C(=O)CN(CCC(=O)O)C(=O)c2cc(NC(=O)Cc3ccc(NC(=O)c4ccco4)cc3)ccc21 [BX12] | 6100
8 | COc1ccc([C@H](CC(=O)O)NC(=O)C(O)CC(=O)Nc2ccc(NC(=O)Nc3ccccc3C)cc2)cc1OC (stereo partly drawn) [SX38] | 404
9 | CC1=NN(c2ccc(C(=O)Nc3ccc4c(c3)C(=O)N(CCC(=O)O)CC(=O)N4C)cc2)C(=O)C1 [BX13] | 5860
10 | Cc1ccccc1NC(=O)Nc1ccc(CC(=O)NCc2ccc3c(c2)C(=O)N(CCC(=O)O)CC(=O)N3C)cc1 [BX16] | 5120
11 | Cc1ccccc1NC(=O)Nc1ccc(NC(=O)CC(CC(C)C)C(=O)NC(C)CC(=O)O)cc1 (stereo not drawn) [SX50] | 167
12 | CC(C)CCN(CC(=O)Nc1ccc(NC(=O)Nc2ccccc2)cc1)C(=O)CN(CCC(=O)O)C(=O)c1ccccc1 [AX33] | 95
13 | Cc1ccccc1NC(=O)Nc1ccc(NC(=O)CN(CCC(C)C)C(=O)CN(CCC(=O)O)C(=O)CN2CCOCC2)cc1 [AX42] | 52
14 | CN1C(=O)CN(CCC(=O)O)C(=O)c2cc(NC(=O)Cc3ccc(NC(=O)Cc4c[nH]c5ccccc45)cc3)ccc21 [BX11] | 9050
15 | Cc1ccccc1NC(=O)Nc1ccc(CC(=O)Nc2ccc3c(c2)C(=O)N(C)CC(=O)N3CCC(=O)O)cc1 [BX42] | 326
16 | Cc1ccccc1NC(=O)Nc1ccc(CC(=O)Nc2cccc(OCCC(C)C(=O)O)c2)cc1 (stereo not drawn) [RX6] | 2590
17 | COc1ccc(CNC(=O)C2=C(C(=O)N[C@@H](CC(=O)O)c3ccc(OC)cc3)CCC2)cc1 [MX2] | 250
18 | Cc1ccccc1NC(=O)Nc1ccc(NC(=O)[C@@H]2CCCN2C(=O)CC(C)CCC(=O)O)cc1 (stereo partly drawn) [CX11] | 144
19 | COc1ccc(C(CC(=O)O)NC(=O)[C@@H](CC(=O)Nc2ccc(NC(=O)Nc3ccccc3C)cc2)CC(C)C)cc1OC (stereo partly drawn) [SX44] | 233

Row | Compound | IC50 [nM]
20 | CC(CC(=O)Nc1ccc(NC(=O)Nc2ccccc2)cc1)C(=O)N[C@H](C)CC(=O)O (stereo partly drawn) [SX43] | 247
21 | Cc1ccccc1NC(=O)Nc1ccc(CC(=O)Nc2cccc(S(=O)(=O)NCCC(=O)O)c2)cc1 [RX5] | 3810
22 | COc1cccc(C(=O)N(CCC(=O)O)CC(=O)N(CCC(C)C)CC(=O)Nc2ccc(OCC(=O)Nc3ccccc3)cc2)c1 [AX19] | 6190
23 | CSCCCN(CC(=O)Nc1ccc(NC(=O)Nc2ccccc2)cc1)C(=O)CN(CCC(=O)O)C(=O)c1ccccc1 [AX27] | 200
24 | Cc1ccccc1NC(=O)Nc1ccc(NC(=O)C2CC2C(=O)N[C@@H](CC(=O)O)c2ccc3c(c2)OCO3)cc1 (stereo partly drawn) [SX25] | 810
25 | COc1cccc(C(=O)N(CCC(=O)O)CC(=O)N(CCC(C)C)CC(=O)Nc2ccc(-n3cnc(Cl)c3Cl)cc2)c1 [AX4] | 15200
26 | Cc1ccccc1NC(=O)Nc1ccc(N(C)C(=O)CCC(=O)N[C@H](C)CC(=O)O)cc1 [SX48] | 195
27 | Cc1ccccc1NC(=O)Nc1ccc(NC(=O)CN(CCC(C)C)C(=O)CCCCC(=O)O)cc1 [CX13] | 52.5
28 | COC(=O)CCCOc1cc(NC(=O)Cc2ccc(NC(=O)Nc3ccccc3C)cc2)cc(OCCCC(=O)O)c1 [RX22] | 157
29 | Cc1ccccc1NC(=O)Nc1ccc(NC(=O)CCC(=O)N[C@H](C)CC(=O)O)cc1 [SX35] | 468
30 | COc1ccc([C@H](CC(=O)O)NC(=O)C(CC(=O)Nc2ccc(NC(=O)Nc3ncccc3C)cc2)CC(C)C)cc1OC (stereo partly drawn) [SX46] | 200
31 | Cc1ccccc1NC(=O)Nc1ccc(CC(=O)Nc2cccc(CN(CCC(=O)O)C(=O)c3ccccc3)c2)cc1 [RX18] | 350
32 | Cc1ccccc1NC(=O)Nc1ccc(NC(=O)[C@@H]2CSCN2C(=O)CCCCC(=O)O)cc1 [CX12] | 63.5
33 | Cc1ccccc1NC(=O)Nc1ccc(CC(=O)Nc2ccc3c(c2)C(=O)N(CC(C)C(=O)O)CC(=O)N3C)cc1 (stereo not drawn) [BX50] | 52.3
34 | COc1cccc(C(=O)N(CCC(=O)O)CC(=O)N(CCC(C)C)CC(=O)Nc2ccc(N3CCOCC3)c(Cl)c2)c1 [AX9] | 7380
35 | Cc1ccccc1NC(=O)Nc1ccc(NC(=O)Cc2ccc3c(c2)C(=O)N(CCC(=O)O)CC(=O)N3C)cc1 [BX33] | 886
36 | Cc1ccccc1NC(=O)Nc1ccc(NC(=O)C2CCCN2C(=O)CCCCC(=O)O)cc1 (stereo not drawn) [CX1] | 1350
37 | COC(=O)C(C(C)C)N1C(=O)CN(CCC(=O)O)C(=O)c2cc(NC(=O)Cc3ccc(NC(=O)Nc4ccccc4C)cc3)ccc21 (stereo not drawn) [BX63] | 75
38 | Cc1ccccc1NC(=O)Nc1ccc(NC(=O)[C@@H]2CCCN2C(=O)CC(C)CC(=O)O)cc1 (stereo partly drawn) [CX10] | 258

Row | Compound | IC50 [nM]
39 | Cc1ccccc1NC(=O)Nc1ccc(CC(=O)Nc2ccc3c(c2)C(=O)N(CCC(=O)O)CC(=O)N3C)cc1 [BX44] | 257
40 | Cc1ccccc1NC(=O)Nc1ccc(CNC(=O)c2ccc3c(c2)CN(C)C(=O)C(CC(=O)O)N3)cc1 (stereo not drawn) [BX18] | 4430
41 | Cc1ccccc1NC(=O)Nc1ccc(CNC(=O)C(CC(=O)NC(CC(=O)O)c2ccc3c(c2)OCO3)CC(C)C)cc1 (stereo not drawn) [SX34] | 500
42 | COc1cc(NC(=O)Cc2ccc(NC(=O)Nc3ccccc3C)cc2)cc(OCCCC(=O)O)c1 [RX26] | 77.7
43 | Cc1ccccc1NC(=O)Nc1ccc(CC(=O)Nc2ccc3c(c2)C(=O)N(CCC(=O)O)CC(=O)N3CC2CC2)cc1 [BX46] | 194
44 | COc1cccc(C(=O)N(CCC(=O)O)CC(=O)N(CCC(C)C)CC(=O)Nc2ccccc2)c1 [AX18] | 1400
45 | COc1ccc([C@H](CC(=O)O)NC(=O)C(CC(=O)Nc2ccc(CCc3ccccc3C)cc2)CC(C)C)cc1OC (stereo partly drawn) [SX39] | 397
46 | Cc1ccccc1NC(=O)Nc1ccc(CC(=O)Nc2cccc(OCCCCC(=O)O)c2)cc1 [RX4] | 4460
47 | Cc1ccccc1NC(=O)Nc1ccc(NC(=O)CN(CCC(C)C)C(=O)CN(CCC(=O)O)C(=O)C2CCCCC2)cc1 [AX29] | 890
48 | COc1ccc(NC(=O)Cc2ccc(NC(=O)Nc3ncccc3C)cc2)cc1OCCCC(=O)O [RX7] | 2300
49 | CN1Cc2ccc(NC(=O)Cc3ccc(NC(=O)Nc4ccccc4Br)cc3)cc2CN(CC(=O)O)C1=O [BX65] | 65
50 | CCOC(=O)CCN1CC(=O)N(CCC(=O)O)Cc2cc(NC(=O)Cc3ccc(NC(=O)Nc4ccccc4C)cc3)ccc21 [BX72] | 12.5
51 | CN1C(=O)CN(CCC(=O)O)C(=O)c2cc(NC(=O)Cc3ccc(NC(=O)Nc4ccccc4)cc3)ccc21 [BX32] | 959
52 | COC(=O)CN1C(=O)CN(CCC(=O)O)C(=O)c2cc(NC(=O)Cc3ccc(NC(=O)Nc4ccccc4C)cc3)ccc21 [BX57] | 113
53 | COc1ccc([C@H](CC(=O)O)NC(=O)C(CC(=O)Nc2ccc(/C=C/c3ccccc3C)cc2)CC(C)C)cc1OC (stereo partly drawn) [SX40] | 335
54 | Cc1ccccc1NC(=O)Nc1ccc(CC(=O)Nc2cccc(S(=O)(=O)NC(C)CC(=O)O)c2)cc1 (stereo not drawn) [RX2] | 10600
55 | COc1ccc([C@H](CC(=O)O)NC(=O)C(CC(=O)Nc2ccc(NC(=O)NS(=O)(=O)c3ccccc3C)cc2)CC(C)C)cc1OC (stereo partly drawn) [SX42] | 298
56 | CN1C(=O)CN(CCC(=O)O)C(=O)c2cc(NC(=O)Cc3ccc(NC(=O)Nc4ccccc4Cl)cc3)ccc21 [BX34] | 723

Same assay, conditions: qualitative statement

Row | Compound | VLA-4 inhibitory activity
57 | Cc1ccccc1NC(=O)Nc1ccc(NC(=O)CN(C)C(=O)CN(CCC(=O)O)C(=O)c2ccccc2)cc1 [Compound A] | having VLA-4 inhibitory activity
